In patent US20230398130A1, “METHODS AND COMPOSITIONS FOR DIFFERENTIATING STEM CELLS” (Massachusetts Institute of Technology, priority 2020, published 2023):

Tested on: intestinal organoids
Assay: Population RNA-sequencing of organoids
Format: cell-based, murine
Experimental: Population RNA-sequencing. Population RNA-seq was performed using a derivative of the Smart-Seq2 protocol for single cells. In brief, organoid media was aspirated and RLT+BME (Qiagen) was added to each well, and plate shaken for 30 minutes to fully lyse. Lysate was aliquoted into 4 identical fractions and stored at −80° C. until reverse transcription. RNA lysate was thawed and cleaned with a 2.2×SPRI ratio using Agencourt RNAClean XP beads (Beckman Coulter, A63987). RNA-seq was performed on a bulk population of […] using Smart-Seq2 chemistry, starting with a 2.2×SPRI ratio cleanup. After oligo-dT priming, Maxima H Minus Reverse Transcriptase (ThermoFisher EP0753) was used to synthesize cDNA with an elongation step at 52° C. before PCR amplification (15 cycles for tissue, 18 cycles for sorted basal cells) using KAPA HiFi PCR Mastermix (Kapa Biosystems KK2602). Sequencing libraries were prepared using the Nextera XT DNA tagmentation kit (Illumina FC-131-1096) with 250 pg input for each sample. Libraries were pooled post-Nextera and cleaned using Agencourt AMPure SPRI beads with successive 0.7× and 0.8× ratio SPRIs and sequenced with an Illumina 75 Cycle NextSeq500/550v2 kit (Illumina FC-404-2005) with loading density at 2.2 pM, with paired end 35 cycle read structure. Samples were sequenced at an average read depth of 8.44 million reads per sample and a total of 96 samples.
Organoid samples were aligned to the Mm10 genome and transcriptome using STAR and RSEM. […] For module scoring with the in vivo Paneth and enteroendocrine cell-defining genes, Applicants used previously published gene sets and computed persample module scores through the Seurat package.

Q: `O=C(/C=C\n1cnc(-c2cc(C(F)(F)F)cc(C(F)(F)F)c2)n1)NNc1cnccn1` [KPT-330] was tested. Which “secretory cell identity (Paneth, goblet, EEC) from bulk transcripts” value (ENR+CV, ENR+CD or ENR organoids) did it give?
A: The value was “increase secretory cells (Paneth, goblet, and EEC)”.

Q: And the “number of differentially expressed genes” value (hits compared, ENR and ENR+CD)?
A: Its value is “the most differentially expressed genes”.
